Experimental data published in patent publication US12583820B2, “Broad spectrum antivirals against coronavirus” (priority 2020, dated 2026).
Read-outs that look alike come from different tables or passages of the source.

Experiments:
[1] = Nonspecific cytotoxic effects (CC50), CytoTox 96 kit
3CLpro of MERS-CoV = 3CLpro of MERS-CoV (Middle East respiratory syndrome-related coronavirus, UniProt K9N7C7); assay: biochemical; format: biochemical
3CLpro of SARS-CoV-2 = target: T1, 3CLpro of SARS-CoV-2 (Severe acute respiratory syndrome coronavirus 2, UniProt P0DTD1); assay: biochemical; format: biochemical
T1 construct: The codon-optimized cDNA of full length of 3CLpro of SARS-CoV-2; 6xHis (N); made in house; pET-28a(+) vector (points to E. coli, my inference)

[2] = test system: NV in the replicon harboring cells (HG23 cells); assay: microbe, parasite or virus in culture; format: cell-based, norovirus (NV); details: read-out: EC50 (μM) ± SD
NV 3CLpro = NV 3CLpro (Norovirus, UniProt Q83883); assay: biochemical; format: biochemical; details: read-out: IC50 (μM) ± SD
Sequence of NV 3CLpro (Q83883 1101-1281): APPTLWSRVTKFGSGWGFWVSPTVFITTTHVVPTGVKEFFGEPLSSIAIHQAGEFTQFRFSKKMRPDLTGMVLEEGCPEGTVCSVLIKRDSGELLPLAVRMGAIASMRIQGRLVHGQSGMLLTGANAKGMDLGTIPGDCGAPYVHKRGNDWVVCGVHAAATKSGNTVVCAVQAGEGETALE

Sequence of 3CLpro of MERS-CoV (K9N7C7 3248-3553 limits assumed): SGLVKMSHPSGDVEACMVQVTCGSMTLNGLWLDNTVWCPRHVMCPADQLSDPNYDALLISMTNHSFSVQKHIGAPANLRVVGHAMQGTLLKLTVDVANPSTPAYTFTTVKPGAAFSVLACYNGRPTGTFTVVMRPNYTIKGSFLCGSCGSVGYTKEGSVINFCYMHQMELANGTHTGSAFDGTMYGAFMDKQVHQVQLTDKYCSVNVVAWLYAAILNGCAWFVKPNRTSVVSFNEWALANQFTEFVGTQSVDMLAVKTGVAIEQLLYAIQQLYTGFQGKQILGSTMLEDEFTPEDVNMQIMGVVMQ

In the case of CCCC(OC(=O)N[C@@H](CC(C)C)C(=O)N[C@@H](C[C@@H]1CCNC1=O)C(O)S(=O)(=O)O)c1ccccc1 (mixture of isomers) [Compound 23c, Sodium(2S)-1-hydroxy-2-((2S)-4-methyl-2-(((1-phenylbutoxy)carbonyl)amino)pentanamido)-3-((S)-2-oxopyrrolidin-3-yl)propane-1-sulfonate], the CC50 at 72 h [1] is reported as > 100000 nM and the IC50 (3CLpro of MERS-CoV; read-out: IC50) is reported as 0.13 µM.
In the case of CC(C)C[C@H](NC(=O)OC1CCC(C)(C)CC1)C(=O)N[C@@H](C[C@@H]1CCNC1=O)C(O)S(=O)(=O)O (stereo partly drawn) [Compound 1c, Sodium (2S)-2-((S)-2-((((4,4-dimethylcyclohexyl)oxy)carbonyl)amino)-4-methylpentan amido)-1-hydroxy-3-((S)-2-oxopyrrolidin-3-yl)propane-1-sulfonate], the CC50 at 72 h [1] is reported as > 100000 nM, the IC50 (3CLpro of MERS-CoV) is reported as 0.09 µM and the IC50 (3CLpro of SARS-CoV-2; read-out: IC50) is reported as 240 nM.
For CCCCC1CCC(OC(=O)NC(CC(C)C)C(=O)NC(CC2CCNC2=O)C(O)S(=O)(=O)O)CC1 [Compound 4c, Sodium (2S)-2-((S)-2-(((((1s,4S)-4-butylcyclohexyl)oxy)carbonyl)amino)-4-methylpentan amido)-1-hydroxy-3-((S)-2-oxopyrrolidin-3-yl)propane-1-sulfonate], the CC50 at 72 h [1] was > 100000 nM and the IC50 (3CLpro of MERS-CoV) was 0.15 µM.
In the case of CC(C)(OC(=O)N[C@@H](CC1CCCCC1)C(=O)N[C@H](C=O)C[C@@H]1CCNC1=O)c1cccc(Cl)c1 [Compound 5a (Scheme 2)], the EC50 [2] is reported as 3.7 ± 2.3 µM, the CC50 (HG23 cells) is reported as > 100000 nM and the IC50 (NV 3CLpro) is reported as 2.9 ± 0.9 µM. It also gave an IC50 (3CLpro of MERS-CoV; read-out: MERS-CoV IC50 (uM) enzyme) of 11.5 µM.
O=C[C@H](C[C@@H]1CCNC1=O)NC(=O)[C@H](CC1CCCCC1)NC(=O)OCCCc1cccc(Cl)c1 [Compound 5j (Example 5)] showed an EC50 [2] of 0.08 ± 0.01 µM and a CC50 (HG23 cells) of 30300 ± 2830 nM.
For CC(C)C[C@H](NC(=O)OCCCc1ccccc1)C(=O)N[C@H](C=O)C[C@@H]1CCNC1=O [Compound 5m], the EC50 [2] was 0.77 ± 0.06 µM, the CC50 (HG23 cells) was > 100000 nM and the IC50 (NV 3CLpro) was 0.75 ± 0.07 µM.
With CC(C)C[C@H](NC(=O)OCCCc1cccc(Cl)c1)C(=O)N[C@H](C=O)C[C@@H]1CCNC1=O [Compound 5n] the EC50 [2] was 0.16 ± 0.06 µM, the CC50 (HG23 cells) was > 100000 nM and the IC50 (NV 3CLpro) was 0.26 ± 0.08 µM.
For CC(C)C[C@H](NC(=O)OCC(C)(C)Cc1cccc(Cl)c1)C(=O)N[C@H](C=O)C[C@@H]1CCNC1=O [Compound 5o], the EC50 [2] was 0.14 ± 0.04 µM and the CC50 (HG23 cells) was > 100000 nM.
In the case of CC(C)C[C@H](NC(=O)OCCCc1ccccc1)C(=O)N[C@@H](C[C@@H]1CCNC1=O)C(O)S(=O)(=O)O (stereo partly drawn) [Compound 6m], the EC50 [2] is reported as 0.85 ± 0.07 µM, the CC50 (HG23 cells) is reported as > 100000 nM and the IC50 (NV 3CLpro) is reported as 0.6 ± 0.14 µM.
For CC(C)C[C@H](NC(=O)OCCCc1cccc(Cl)c1)C(=O)N[C@@H](C[C@@H]1CCNC1=O)C(O)S(=O)(=O)O (stereo partly drawn) [Compound 6n], the EC50 [2] was 0.09 ± 0.01 µM, the CC50 (HG23 cells) was > 100000 nM and the IC50 (NV 3CLpro) was 0.19 ± 0.06 µM.
For CC(C)C[C@H](NC(=O)OCC(C)(C)Cc1cccc(Cl)c1)C(=O)N[C@@H](C[C@@H]1CCNC1=O)C(O)S(=O)(=O)O (stereo partly drawn) [Compound 6o], the EC50 [2] was 0.15 ± 0.08 µM, the CC50 (HG23 cells) was > 100000 nM and the IC50 (NV 3CLpro) was 0.16 ± 0.03 µM.
O=C(N[C@@H](CC1CCCCC1)C(=O)N[C@@H](C[C@@H]1CCNC1=O)C(O)S(=O)(=O)O)OC1(c2cccc(Cl)c2)CC1 (stereo partly drawn) [Compound 6q] gave an EC50 [2] of 0.18 ± 0.04 µM, a CC50 (HG23 cells) of 42300 ± 15600 nM and an IC50 (NV 3CLpro) of 0.27 ± 0.04 µM.
For CC(C)C[C@H](NC(=O)OC1(c2cccc(Cl)c2)CC1)C(=O)N[C@@H](C[C@@H]1CCNC1=O)C(O)S(=O)(=O)O (stereo partly drawn) [Compound 6r], the EC50 [2] was 0.55 ± 0.08 µM, the CC50 (HG23 cells) was > 100000 nM and the IC50 (NV 3CLpro) was 0.25 ± 0.08 µM.
Work on O=C(N[C@@H](CC1CCCCC1)C(=O)N[C@@H](C[C@@H]1CCNC1=O)C(O)S(=O)(=O)O)OC/C=C/c1cccc(Cl)c1 (stereo partly drawn) [Compound 6s] yielded an EC50 [2] of 0.07 ± 0.02 µM, a CC50 (HG23 cells) of 28300 ± 2800 nM and an IC50 (NV 3CLpro) of 0.16 ± 0.01 µM.
In the case of CC(C)C[C@H](NC(=O)OC/C=C/c1cccc(Cl)c1)C(=O)N[C@@H](C[C@@H]1CCNC1=O)C(O)S(=O)(=O)O (stereo partly drawn) [Compound 6t], the EC50 [2] is reported as 0.08 ± 0.02 µM, the CC50 (HG23 cells) is reported as > 100000 nM and the IC50 (NV 3CLpro) is reported as 0.11 ± 0.02 µM.
For CC(C)C[C@H](NC(=O)OCCCC1CCCCC1)C(=O)N[C@@H](C[C@@H]1CCNC1=O)C(O)S(=O)(=O)O (stereo partly drawn) [Compound 7f (Scheme 1), sodium (2S)-2-((S)-2-(((3-cyclohexylpropoxy)carbonyl)amino)-4-methylpentanamido)-1-hydroxy-3-((S)-2-oxopyrrolidin-3-yl)propane-1-sulfonate], the CC50 at 72 h [1] was > 100000 nM and the IC50 (3CLpro of MERS-CoV) was 0.64 µM.
With O=C(N[C@@H](CC1CCCCC1)C(=O)N[C@@H](C[C@@H]1CCNC1=O)C(O)S(=O)(=O)O)OC1CCC(F)(F)CC1 (stereo partly drawn) [Compound 7i (Scheme 1), sodium (2S)-2-((S)-3-cyclohexyl-2-((((4,4-difluorocyclohexyl)oxy)carbonyl)amino)propan-amido)-1-hydroxy-3-((S)-2-oxopyrrolidin-3-yl)propane-1-sulfonate] the CC50 at 72 h [1] was > 100000 nM and the IC50 (3CLpro of MERS-CoV) was > 50 µM.
Molecule CCCCCC(=O)OC([C@H](C[C@@H]1CCNC1=O)NC(=O)[C@H](CC1CCCCC1)NC(=O)OCC(C)(C)Cc1cccc(Cl)c1)S(=O)(=O)O (stereo partly drawn) [Compound 7l] has an EC50 [2] of 0.08 ± 0.02 µM and a CC50 (HG23 cells) of 20700 ± 4030 nM.
For CCCC1CCC(COC(=O)NC(CC(C)C)C(=O)NC(CC2CCNC2=O)C(O)S(=O)(=O)O)CC1 [Compound 8c, Sodium (2S)-1-hydroxy-2-((S)-4-methyl-2-(((((1r,4R)-4-propylcyclohexyl)methoxy)carbonyl)amino)pentanamido)-3-(2-oxopyrrolidin-3-yl) propane-1-sulfonate], the CC50 at 72 h [1] was > 100000 nM, the IC50 (3CLpro of MERS-CoV) was 0.11 µM and the IC50 (3CLpro of SARS-CoV-2) was 210 nM.
In the case of CC(C)C[C@H](NC(=O)OC(C)C1CCC(F)(F)CC1)C(=O)N[C@@H](C[C@@H]1CCNC1=O)C(O)S(=O)(=O)O (stereo partly drawn) [Compound 12c, Sodium (2S)-2-((2S)-2-(((1-(4,4-difluorocyclohexyl)ethoxy)carbonyl)amino)-4-methylpentan amido)-1-hydroxy-3-((S)-2-oxopyrrolidin-3-yl)propane-1-sulfonate], the CC50 at 72 h [1] is reported as > 100000 nM, the IC50 (3CLpro of MERS-CoV) is reported as 0.12 µM and the IC50 (3CLpro of SARS-CoV-2) is reported as 200 nM.
With CC(C)C[C@H](NC(=O)OC(Cc1ccccc1)C1CCC(F)(F)CC1)C(=O)N[C@@H](C[C@@H]1CCNC1=O)C(O)S(=O)(=O)O (stereo partly drawn) [Compound 14c, Sodium (2S)-2-((2S)-2-(((1-(4,4-difluorocyclohexyl)-2-phenylethoxy)carbonyl)amino)-4-methylpentanamido)-1-hydroxy-3-((S)-2-oxopyrrolidin-3-yl)propane-1-sulfonate] the CC50 at 72 h [1] was > 100000 nM, the IC50 (3CLpro of MERS-CoV) was 0.16 µM and the IC50 (3CLpro of SARS-CoV-2) was 220 nM.
For CC(C)C[C@H](NC(=O)OCc1cccc(F)c1)C(=O)N[C@@H](C[C@@H]1CCNC1=O)C(O)S(=O)(=O)O (stereo partly drawn) [Compound 18c, Sodium (2S)-2-((S)-2-((((3-fluorobenzyl)oxy)carbonyl)amino)-4-methylpentanamido)-1-hydroxy-3-((S)-2-oxopyrrolidin-3-yl)propane-1-sulfonate], the CC50 at 72 h [1] was > 100000 nM, the IC50 (3CLpro of MERS-CoV) was 0.08 µM and the IC50 (3CLpro of SARS-CoV-2) was 310 nM.
With CC(C)C[C@H](NC(=O)OCc1ccc(F)cc1)C(=O)N[C@@H](C[C@@H]1CCNC1=O)C(O)S(=O)(=O)O (stereo partly drawn) [Compound 19c, Sodium (2S)-2-((S)-2-((((4-fluorobenzyl)oxy)carbonyl)amino)-4-methylpentanamido)-1-hydroxy-3-((S)-2-oxopyrrolidin-3-yl)propane-1-sulfonate] the CC50 at 72 h [1] was > 100000 nM and the IC50 (3CLpro of SARS-CoV-2) was 380 nM.
For CC(C)C[C@H](NC(=O)OCc1c(F)c(F)c(F)c(F)c1F)C(=O)N[C@@H](CC1CCNC1=O)C(O)S(=O)(=O)O (stereo partly drawn) [Compound 21c, Sodium (2S)-1-hydroxy-2-((S)-4-methyl-2-((((perfluorophenyl)methoxy)carbonyl)amino)pentanamido)-3-(2-oxopyrrolidin-3-yl) propane-1-sulfonate], the CC50 at 72 h [1] was > 100000 nM and the IC50 (3CLpro of MERS-CoV) was 0.07 µM.
In the case of [2H]C([2H])(OC(=O)N[C@@H](CC(C)C)C(=O)N[C@H](C=O)CC1CCNC1=O)c1c(F)c(F)c(F)c(F)c1F (stereo partly drawn) [Compound 22b, (Perfluorophenyl)methyl-d2 ((2S)-4-methyl-1-oxo-1-(((2S)-1-oxo-3-(2-oxopyrrolidin-3-yl)propan-2-yl)amino)pentan-2-yl) carbamate], the CC50 at 72 h [1] is reported as > 100000 nM and the IC50 (3CLpro of SARS-CoV-2) is reported as 630 nM.
With [2H]C([2H])(OC(=O)N[C@@H](CC(C)C)C(=O)N[C@@H](CC1CCNC1=O)C(O)S(=O)(=O)O)c1c(F)c(F)c(F)c(F)c1F (stereo partly drawn) [Compound 22c, Sodium (2S)-1-hydroxy-2-((S)-4-methyl-2-((((perfluorophenyl)methoxy-d2)carbonyl)amino)pentanamido)-3-(2-oxopyrrolidin-3-yl) propane-1-sulfonate] the CC50 at 72 h [1] was > 100000 nM and the IC50 (3CLpro of SARS-CoV-2) was 450 nM.
For CCCC(OC(=O)N[C@@H](CC(C)C)C(=O)N[C@H](C=O)C[C@@H]1CCNC1=O)c1ccccc1 (stereo partly drawn) [Compound 23b, 1-Phenylbutyl ((S)-4-methyl-1-oxo-1-(((S)-1-oxo-3-((S)-2-oxopyrrolidin-3-yl)propan-2-yl)amino)pentan-2-yl)carbamate], the CC50 at 72 h [1] was > 100000 nM, the “fold more potent than the corresponding 24b/c aldehyde and bisulfite adducts” value (3CLpro of SARS-CoV-2) was 27 fold and the IC50 (3CLpro of SARS-CoV-2; read-out: IC50 against 3CLpro) was 150 nM.
In the case of CC(C)C[C@H](NC(=O)OC(Cc1ccccc1)c1ccccc1)C(=O)N[C@H](C=O)C[C@@H]1CCNC1=O (stereo partly drawn) [Compound 24b, 1,2-Diphenylethyl ((S)-4-methyl-1-oxo-1-(((S)-1-oxo-3-((S)-2-oxopyrrolidin-3-yl)propan-2-yl)amino)pentan-2-yl)carbamate], the CC50 at 72 h [1] is reported as > 100000 nM and the IC50 (3CLpro of SARS-CoV-2) is reported as 4100 nM.
With CC(C)C[C@H](NC(=O)OC(Cc1ccccc1)c1ccccc1)C(=O)N[C@@H](C[C@@H]1CCNC1=O)C(O)S(=O)(=O)O (stereo partly drawn) [Compound 24c, Sodium (2S)-2-((2S)-2-(((1,2-diphenylethoxy)carbonyl)amino)-4-methylpentanamido)-1-hydroxy-3-((S)-2-oxopyrrolidin-3-yl)propane-1-sulfonate] the CC50 at 72 h [1] was > 100000 nM and the IC50 (3CLpro of SARS-CoV-2) was 3500 nM.
